Each structure is given as a SMILES string.

The target of this test is recombinant human AMCase (Homo sapiens, UniProt Q9BZP6). The experiment in a line: Human AMCase Activity Assay. The test is classed as biochemical. Conditions: recombinant hAMCase, 4-methylumbelliferyl B-D-N,N′-diacetylchitobioside substrate, citrate buffer pH 5.2, 37° C., 60 minutes. How it is done: Human AMCase Activity Assay
Chain of recombinant human AMCase (Q9BZP6 22-476): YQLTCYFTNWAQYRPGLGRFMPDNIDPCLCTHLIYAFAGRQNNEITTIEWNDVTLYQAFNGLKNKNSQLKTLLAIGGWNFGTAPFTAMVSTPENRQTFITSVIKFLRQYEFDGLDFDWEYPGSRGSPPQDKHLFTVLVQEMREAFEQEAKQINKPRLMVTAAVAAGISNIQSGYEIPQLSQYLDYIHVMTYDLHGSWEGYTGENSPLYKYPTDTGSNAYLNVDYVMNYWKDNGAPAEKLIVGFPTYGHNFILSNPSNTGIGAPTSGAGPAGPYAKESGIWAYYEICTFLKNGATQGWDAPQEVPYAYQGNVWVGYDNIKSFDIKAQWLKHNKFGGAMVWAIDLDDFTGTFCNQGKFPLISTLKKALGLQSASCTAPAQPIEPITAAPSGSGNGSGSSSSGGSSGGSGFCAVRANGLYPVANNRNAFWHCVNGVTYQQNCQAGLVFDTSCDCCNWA
The assay was run in the 96-well plate format, each reaction in the total volume of 100 μL. 4-Methylumbelliferyl B-D-N,N′-diacetylchitobioside hydrate was used as a substrate for the enzyme. Upon hydrolysis by AMCase, the substrate releases 4-methylumbelliferyl (4MU) that, when ionized in basic pH, emits fluorescence at 460 nm.
Briefly, 40 μL of a substrate was added to each well, followed by 10 μL of compound dilution and 50 μL of hAMCase recombinant enzyme solution. […] The fluorescence of the reaction product was measured in Perkin Elmer Envision fluorescent plate reader at an excitation wavelength of 355 nm.
By IC50 is commonly meant the concentration needed to halve the response being measured. Regarding `Nc1n[nH]c(N2CCC(N(CCc3ccc(Cl)cc3)Cc3ccccc3C(=O)O)CC2)n1` [Example 2, 2-(((1-(3-amino-1H-1,2,4-triazol-5-yl)piperidin-4-yl)(4-chlorophenethyl)amino-)methyl)benzoic acid], the half-maximal inhibitory concentration (IC50) fell in the range of 0.1 to 1 µM.
Then `Nc1n[nH]c(N2CCC(N(CCc3ccc(Cl)cc3)Cc3cccc(S(=O)(=O)NCC(F)(F)F)c3)CC2)n1` [Example 19, 3-(((1-(3-amino-1H-1,2,4-triazol-5-yl)piperidin-4-yl)(4-chlorophenethyl)amino)-methyl)-N-(2,2,2-trifluoroethyl)benzenesulfonamide], with 0.01 to 0.1 µM; and `CS(=O)(=O)Nc1cccc(CN(CCc2ccc(Cl)cc2)C2CCN(c3nc(N)n[nH]3)CC2)c1` [Example 32, N-(3-(((1-(3-amino-1H-1,2,4-triazol-5-yl)piperidin-4-yl)(4-chlorophenethyl)-amino)methyl)phenyl)methanesulfonamide], with 0.001 to 0.01 µM; and `Nc1n[nH]c(N2CCC(N(CCCC(=O)O)CCc3ccc(Cl)cc3)CC2)n1` [Example 27, 4-((1-(3-amino-1H-1,2,4-triazol-5-yl)piperidin-4-yl)(4-chlorophenethyl)-amino)butanoic acid], with 0.1 to 1 µM.
`Nc1n[nH]c(N2CCC(N(CCc3ccc(Br)cc3)Cc3ccc(S(N)(=O)=O)cc3)CC2)n1` [Example 15, 4-(((1-(3-amino-1H-1,2,4-triazol-5-yl)piperidin-4-yl)(4-bromophenethyl)amino)-methyl)benzenesulfonamide]: the half-maximal inhibitory concentration (IC50) lay within 0.001 to 0.01 µM.
Then `CS(=O)(=O)NC(=O)c1cc(CN(CCc2ccc(Cl)cc2)C2CCN(c3nc(N)n[nH]3)CC2)ccc1Cl` [Example 41, 5-(((1-(3-amino-1H-1,2,4-triazol-5-yl)piperidin-4-yl)(4-chlorophenethyl)amino)-methyl)-2-chloro-N-(methylsulfonyl)benzamide], with 0.01 to 0.1 µM.
Next, `Nc1n[nH]c(N2CCC(N(CCc3ccc(Cl)cc3)Cc3cccc(-c4nnn[nH]4)c3)CC2)n1` [Example 36, N-(3-(1H-tetrazol-5-yl)benzyl)-1-(3-amino-1H-1,2,4-triazol-5-yl)-N-(4-chlorophenethyl)piperidin-4-amine]: 0.001 to 0.01 µM.
As for `Cc1ccc(S(=O)(=O)NCCCN(CCc2ccc(Br)cc2)C2CCN(c3nc(N)n[nH]3)CC2)cc1` [Example 24, N-(3-((1-(3-amino-1H-1,2,4-triazol-5-yl)piperidin-4-yl)(4-bromophenethyl)-amino)propyl)-4-methylbenzenesulfonamide], the half-inhibitory concentration (IC50) lay in the range of 0.001 to 0.01 µM.
Turning to `Nc1n[nH]c(N2CCC(N(CCc3ccc(Cl)cc3)CC(=O)Nc3ccccc3)CC2)n1` [Example 21, 2-((1-(3-amino-1H-1,2,4-triazol-5-yl)piperidin-4-yl)(4-chlorophenethyl)amino)-N-phenylacetamide], the IC50 was 0.1 to 1 µM.
Turning to `CC(=O)NS(=O)(=O)CCN(CCc1ccc(Cl)cc1)C1CCN(c2nc(N)n[nH]2)CC1` [Example 38, N-((2-((1-(3-amino-1H-1,2,4-triazol-5-yl)piperidin-4-yl)(4-chlorophenethyl)-amino)ethyl)sulfonyl)acetamide], the IC50 was in the range of 0.01 to 0.1 µM.
Take `Cc1ccc(S(=O)(=O)NCCN(CCc2ccc(Br)cc2)C2CCN(c3nc(N)n[nH]3)CC2)cc1` [Example 42, N-(2-((1-(3-amino-1H-1,2,4-triazol-5-yl)piperidin-4-yl)(4-bromophenethyl)-amino)ethyl)-4-methylbenzenesulfonamide]: the half-inhibitory concentration (IC50) is 0.001 to 0.01 µM.
Next, `NC(=O)c1ccc(CN(CCc2ccc(Br)cc2)C2CCN(c3nc(N)n[nH]3)CC2)cc1` [Example 34, 4-(((1-(3-amino-1H-1,2,4-triazol-5-yl)piperidin-4-yl)(4-bromophenethyl)-amino)methyl)benzamide]: 0.001 to 0.01 µM.
Take `CS(=O)(=O)Nc1ccc(CN(CCc2ccc(Cl)cc2)C2CCN(c3nc(N)n[nH]3)CC2)cc1` [Example 33, N-(4-(((1-(3-amino-1H-1,2,4-triazol-5-yl)piperidin-4-yl)(4-chlorophenethyl)-amino)methyl)phenyl)methanesulfonamide]: the IC50 was 0.001 to 0.01 µM.
Next, `Nc1n[nH]c(N2CCC(N(CCc3ccc(Cl)cc3)CC3(C(=O)O)CC3)CC2)n1` [Example 30, 1-(((1-(3-amino-1H-1,2,4-triazol-5-yl)piperidin-4-yl)(4-chlorophenethyl)amino)-methyl)cyclopropanecarboxylic acid]: 1 to 10 µM; `Nc1n[nH]c(N2CCC(N(CCNC(=O)C(F)(F)F)CCc3ccc(Cl)cc3)CC2)n1` [Example 14, N-(2-((1-(3-amino-1H-1,2,4-triazol-5-yl)piperidin-4-yl)(4-chlorophenethyl)-amino)ethyl)-2,2,2-trifluoroacetamide]: 0.1 to 1 µM.
Regarding `CS(=O)(=O)NC(=O)c1ccc(CN(CCc2ccc(Cl)cc2)C2CCN(c3nc(N)n[nH]3)CC2)cc1` [Example 39, 4-(((1-(3-amino-1H-1,2,4-triazol-5-yl)piperidin-4-yl)(4-chlorophenethyl)-amino)methyl)-N-(methylsulfonyl)benzamide], the IC50 lay in the range of 0.001 to 0.01 µM.
As to `Nc1n[nH]c(N2CCC(N(CCc3ccc(Cl)cc3)C(CC(=O)O)c3ccc(Cl)cc3)CC2)n1` (centres unmarked) [Example 28, 3-((1-(3-amino-1H-1,2,4-triazol-5-yl)piperidin-4-yl)(4-chlorophenethyl)amino)-3-(4-chlorophenyl)propanoic acid], the IC50 was in the range of 1 to 10 µM.
Then `Cc1cc(CN(CCc2ccc(Cl)cc2)C2CCN(c3nc(N)n[nH]3)CC2)ccc1C(=O)O` [Example 5, 4-(((1-(3-amino-1H-1,2,4-triazol-5-yl)piperidin-4-yl)(4-chlorophenethyl)amino)-methyl)-2-methylbenzoic acid], with 0.001 to 0.01 µM; and `CS(=O)(=O)NCCCN(CCc1ccc(Br)cc1)C1CCN(c2nc(N)n[nH]2)CC1` [Example 23, N-(3-((1-(3-amino-1H-1,2,4-triazol-5-yl)piperidin-4-yl)(4-bromophenethyl)-amino)propyl)methanesulfonamide], with 0.001 to 0.01 µM; and `Nc1n[nH]c(N2CCC(N(CCc3ccc(Cl)cc3)Cc3ccc(F)c(C(=O)O)c3)CC2)n1` [Example 8, 5-(((1-(3-amino-1H-1,2,4-triazol-5-yl)piperidin-4-yl)(4-chlorophenethyl)amino)-methyl)-2-fluorobenzoic acid], with 0.01 to 0.1 µM.
For `CNC(=O)c1ccc(CN(CCc2ccc(Br)cc2)C2CCN(c3nc(N)n[nH]3)CC2)cc1` [Example 35, 4-(((1-(3-amino-1H-1,2,4-triazol-5-yl)piperidin-4-yl)(4-bromophenethyl)-amino)methyl)-N-methylbenzamide], the IC50 is 0.001 to 0.01 µM.
Then `Cc1ccc(CN(CCc2ccc(Cl)cc2)C2CCN(c3nc(N)n[nH]3)CC2)cc1C(=O)O` [Example 6, 5-(((1-(3-amino-1H-1,2,4-triazol-5-yl)piperidin-4-yl)(4-chlorophenethyl)-amino)methyl)-2-methylbenzoic acid], with 0.01 to 0.1 µM.
`CC(C)C(=O)NS(=O)(=O)c1ccc(CN(CCc2ccc(Br)cc2)C2CCN(c3nc(N)n[nH]3)CC2)cc1` [Example 17, N-((4-(((1-(3-amino-1H-1,2,4-triazol-5-yl)piperidin-4-yl)(4-bromophenethyl)-amino)methyl)phenyl)sulfonyl)isobutyramide]: the 50% inhibitory concentration (IC50) fell in the range of 0.001 to 0.01 µM.

The values above are taken from patent US9440953B2, “Substituted amino triazoles useful as acidic mammalian chitinase inhibitors” (OncoArendi Therapeutics Sp z o.o., priority 2014, dated 2016).
